Measurements: the NIST ThermoML archive (doi:10.1016/j.fluid.2016.08.002)

Experiment: xn = mol fraction of the nth substance listed
Conditions: Gas, Vibrating tube method

S [hydrogen sulfide] + C
Conditions	mass density [kg/m3]
253.4 K, 9215 kPa, x2 = 0.8685	128.92
253.4 K, 9484 kPa, x2 = 0.8685	135.48
253.41 K, 10167 kPa, x2 = 0.8685	150.17
253.42 K, 10405 kPa, x2 = 0.8685	155.11
253.42 K, 10879 kPa, x2 = 0.8685	164.94
253.42 K, 11161 kPa, x2 = 0.8685	170.62
253.43 K, 9711 kPa, x2 = 0.8685	140.67
253.43 K, 9944 kPa, x2 = 0.8685	145.46
253.44 K, 10674 kPa, x2 = 0.8685	160.71
253.45 K, 11408 kPa, x2 = 0.8685	175.6
253.45 K, 12503 kPa, x2 = 0.8685	195.9
253.46 K, 11691 kPa, x2 = 0.8685	181.06
253.46 K, 11951 kPa, x2 = 0.8685	186.09
253.46 K, 12221 kPa, x2 = 0.8685	190.99
253.46 K, 12710 kPa, x2 = 0.8685	199.55
253.47 K, 13026 kPa, x2 = 0.8685	204.72
253.48 K, 13361 kPa, x2 = 0.8685	209.99
253.49 K, 13557 kPa, x2 = 0.8685	213.18
253.5 K, 13904 kPa, x2 = 0.8685	217.77
253.53 K, 14217 kPa, x2 = 0.8685	222.31
253.53 K, 14605 kPa, x2 = 0.8685	227.86
253.53 K, 27036 kPa, x2 = 0.8685	316.4
253.54 K, 15328 kPa, x2 = 0.8685	236.23
253.56 K, 16209 kPa, x2 = 0.8685	246.09
253.56 K, 23487 kPa, x2 = 0.8685	300.68
253.57 K, 26154 kPa, x2 = 0.8685	313.25
253.58 K, 16612 kPa, x2 = 0.8685	250.04
253.59 K, 17129 kPa, x2 = 0.8685	255.23
253.6 K, 17589 kPa, x2 = 0.8685	259.35
253.61 K, 18036 kPa, x2 = 0.8685	263.28
253.61 K, 18480 kPa, x2 = 0.8685	267.15
253.62 K, 18822 kPa, x2 = 0.8685	269.8
253.63 K, 19390 kPa, x2 = 0.8685	274.47
253.64 K, 19853 kPa, x2 = 0.8685	277.53
253.66 K, 21081 kPa, x2 = 0.8685	286.3
253.66 K, 21605 kPa, x2 = 0.8685	289.87
253.67 K, 22087 kPa, x2 = 0.8685	292.82
253.68 K, 22512 kPa, x2 = 0.8685	295.31
253.68 K, 22918 kPa, x2 = 0.8685	297.52
253.72 K, 26573 kPa, x2 = 0.8685	314.9
272.97 K, 448 kPa, x2 = 0.714	4.32
272.98 K, 925 kPa, x2 = 0.714	9.1
272.98 K, 1959 kPa, x2 = 0.714	21.08
272.99 K, 1499 kPa, x2 = 0.714	15.62
272.99 K, 2470 kPa, x2 = 0.714	27.39
272.99 K, 15974 kPa, x2 = 0.714	304.94
272.99 K, 16531 kPa, x2 = 0.714	310.78
273 K, 5009 kPa, x2 = 0.714	66.37
273 K, 13055 kPa, x2 = 0.714	265.48
273 K, 13551 kPa, x2 = 0.714	273.7
273 K, 14019 kPa, x2 = 0.714	280.64
273 K, 14532 kPa, x2 = 0.714	287.5
273 K, 15457 kPa, x2 = 0.714	298.99
273.01 K, 12511 kPa, x2 = 0.714	252.68
273.01 K, 14977 kPa, x2 = 0.714	293.17
273.02 K, 4006 kPa, x2 = 0.714	49.21
273.02 K, 4495 kPa, x2 = 0.714	57.7
273.02 K, 5020 kPa, x2 = 0.8197	51.69
273.03 K, 5418 kPa, x2 = 0.714	73.5
273.03 K, 16977 kPa, x2 = 0.714	315.19
273.03 K, 29571 kPa, x2 = 0.714	387.72
273.03 K, 30070 kPa, x2 = 0.714	389.49
273.04 K, 220 kPa, x2 = 0.8197	1.87
273.04 K, 5526 kPa, x2 = 0.8197	58.55
273.05 K, 512 kPa, x2 = 0.8197	4.39
273.05 K, 6060 kPa, x2 = 0.8197	66.2
273.05 K, 6535 kPa, x2 = 0.8197	73.36
273.05 K, 19490 kPa, x2 = 0.8197	268.43
273.05 K, 20545 kPa, x2 = 0.8197	276.64
273.05 K, 27474 kPa, x2 = 0.714	379.67
273.05 K, 29015 kPa, x2 = 0.714	385.58
273.06 K, 1024 kPa, x2 = 0.8197	8.86
273.06 K, 1546 kPa, x2 = 0.8197	13.54
273.06 K, 1998 kPa, x2 = 0.8197	17.83
273.06 K, 3515 kPa, x2 = 0.714	41.26
273.06 K, 4568 kPa, x2 = 0.8197	45.89
273.06 K, 7007 kPa, x2 = 0.8197	80.78
273.06 K, 7503 kPa, x2 = 0.8197	88.86
273.06 K, 19898 kPa, x2 = 0.8197	271.74
273.06 K, 27956 kPa, x2 = 0.714	381.54
273.07 K, 2472 kPa, x2 = 0.8197	22.64
273.07 K, 2991 kPa, x2 = 0.714	34.29
273.07 K, 4037 kPa, x2 = 0.8197	39.48
273.07 K, 19004 kPa, x2 = 0.8197	264.22
273.07 K, 21088 kPa, x2 = 0.8197	280.47
273.07 K, 22026 kPa, x2 = 0.8197	286.58
273.08 K, 3006 kPa, x2 = 0.8197	28.12
273.08 K, 3496 kPa, x2 = 0.8197	33.34
273.08 K, 8037 kPa, x2 = 0.8197	97.86
273.08 K, 17450 kPa, x2 = 0.714	319.61
273.08 K, 17522 kPa, x2 = 0.8197	249.57
273.08 K, 18504 kPa, x2 = 0.8197	259.61
273.08 K, 21490 kPa, x2 = 0.8197	283.16
273.09 K, 8509 kPa, x2 = 0.8197	106.04
273.09 K, 8697 kPa, x2 = 0.8197	109.34
273.09 K, 18521 kPa, x2 = 0.714	328.7
273.1 K, 18017 kPa, x2 = 0.8197	254.8
273.1 K, 18931 kPa, x2 = 0.714	331.97
273.1 K, 22561 kPa, x2 = 0.8197	289.86
273.1 K, 28471 kPa, x2 = 0.714	383.53
273.11 K, 9417 kPa, x2 = 0.8197	122.17
273.11 K, 10159 kPa, x2 = 0.8197	135.6
273.11 K, 14299 kPa, x2 = 0.8197	207.01
273.11 K, 17004 kPa, x2 = 0.8197	243.74
273.11 K, 17956 kPa, x2 = 0.714	324.07
273.11 K, 23102 kPa, x2 = 0.8197	293.06
273.12 K, 23507 kPa, x2 = 0.8197	295.4
273.13 K, 10896 kPa, x2 = 0.8197	148.97
273.13 K, 11490 kPa, x2 = 0.8197	159.68
273.13 K, 12024 kPa, x2 = 0.8197	169.16
273.13 K, 13513 kPa, x2 = 0.8197	194.52
273.13 K, 14007 kPa, x2 = 0.8197	202.45
273.13 K, 14904 kPa, x2 = 0.8197	216.11
273.13 K, 15510 kPa, x2 = 0.8197	224.73
273.13 K, 16041 kPa, x2 = 0.8197	231.85
273.13 K, 16504 kPa, x2 = 0.8197	237.74
273.13 K, 24081 kPa, x2 = 0.8197	298.69
273.13 K, 27492 kPa, x2 = 0.8197	316.71
273.13 K, 28026 kPa, x2 = 0.8197	319.37
273.13 K, 28568 kPa, x2 = 0.8197	321.92
273.13 K, 29088 kPa, x2 = 0.8197	324.13
273.13 K, 29546 kPa, x2 = 0.8197	325.75
273.13 K, 29999 kPa, x2 = 0.8197	327.01
273.14 K, 10580 kPa, x2 = 0.8197	143.25
273.14 K, 21825 kPa, x2 = 0.714	351.99
273.14 K, 24511 kPa, x2 = 0.8197	301.13
273.14 K, 26076 kPa, x2 = 0.8197	309.49
273.14 K, 26577 kPa, x2 = 0.8197	312.08
273.14 K, 26982 kPa, x2 = 0.8197	314.11
273.15 K, 25182 kPa, x2 = 0.8197	304.96
273.15 K, 25661 kPa, x2 = 0.8197	307.41
273.16 K, 13305 kPa, x2 = 0.8197	191.11
